Tested on: 485176-168-R4-J1-PDC spheroids with HUVEC/MSC, viability
Experiment: Anticancer human tumor 485176-168-R4-J1-PDC patient-derived pancreatic adenocarcinoma cell line growth inhibition [GQUAD]
Conditions: for IC50: curve of first compound; for viability, T/C: stronger effect = lower value
Method in brief: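 Tumor cells were grown as complex spheroids with HUVEC endothelial cells and mesenchymal stem cells as stroma. G-quadruplex stabilizers were combined with targeted agents over half-log dilutions from near the clinical Cmax, or from 10 microM.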

[1] = second compound 0.0316 µM, first compound 0.0316 µM
[2] = second compound 0.0316 µM, first compound 0.1 µM
[3] = second compound 0.0316 µM, first compound 0.316 µM
[4] = second compound 0.0316 µM, first compound 1 µM
[5] = second compound 0.0316 µM, first compound 3.16 µM
[6] = second compound 0.0316 µM, first compound 10 µM
[7] = second compound 0.1 µM, first compound 0.0316 µM
[8] = second compound 0.1 µM, first compound 0.1 µM
[9] = second compound 0.1 µM, first compound 0.316 µM
[10] = second compound 0.1 µM, first compound 1 µM
[11] = second compound 0.1 µM, first compound 3.16 µM
[12] = second compound 0.1 µM, first compound 10 µM
[13] = second compound 0.316 µM, first compound 0.0316 µM
[14] = second compound 0.316 µM, first compound 0.1 µM
[15] = second compound 0.316 µM, first compound 0.316 µM
[16] = second compound 0.316 µM, first compound 1 µM
[17] = second compound 0.316 µM, first compound 3.16 µM
[18] = second compound 0.316 µM, first compound 10 µM
[19] = second compound 1 µM, first compound 0.0316 µM
[20] = second compound 1 µM, first compound 0.1 µM
[21] = second compound 1 µM, first compound 0.316 µM
[22] = second compound 1 µM, first compound 1 µM
[23] = second compound 1 µM, first compound 3.16 µM
[24] = second compound 1 µM, first compound 10 µM
[25] = second compound 3.16 µM, first compound 0.0316 µM
[26] = second compound 3.16 µM, first compound 0.1 µM
[27] = second compound 3.16 µM, first compound 0.316 µM
[28] = second compound 3.16 µM, first compound 1 µM
[29] = second compound 3.16 µM, first compound 3.16 µM
[30] = second compound 3.16 µM, first compound 10 µM
[31] = second compound 10 µM, first compound 0.0316 µM
[32] = second compound 10 µM, first compound 0.1 µM
[33] = second compound 10 µM, first compound 0.316 µM
[34] = second compound 10 µM, first compound 1 µM
[35] = second compound 10 µM, first compound 3.16 µM
[36] = second compound 10 µM, first compound 10 µM
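Further: spheroids exposed to compounds for seven days before readout.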
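Wherever viability, T/C is given: percent viability relative to DMSO vehicle control wells as 100%.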

## C=CC(=O)N1CCN(c2nc(=O)n(-c3c(C)ccnc3C(C)C)c3nc(-c4c(O)cccc4F)c(F)cc23)C(C)C1 (stereo unspecified) + Cc1cnc(CNC(=O)c2c(=O)c3ccc(N4CCCN(C)CC4)nc3n3c2sc2ccccc23)cn1
Second compound 0.0316 µM
  IC50: > 10 µM
Second compound 0.1 µM
  IC50: > 10 µM
Second compound 0.316 µM
  IC50: > 10 µM
Second compound 1 µM
  IC50: > 10 µM
Second compound 3.16 µM
  IC50: < 0.0316 µM
Second compound 10 µM
  IC50: < 0.0316 µM
[1]
  viability, T/C: 108%
[2]
  viability, T/C: 97.2%
[3]
  viability, T/C: 111%
[4]
  viability, T/C: 97.7%
[5]
  viability, T/C: 114%
[6]
  viability, T/C: 110%
[7]
  viability, T/C: 67.5%
[8]
  viability, T/C: 81.6%
[9]
  viability, T/C: 86.7%
[10]
  viability, T/C: 92.4%
[11]
  viability, T/C: 96.4%
[12]
  viability, T/C: 92.5%
[13]
  viability, T/C: 63.8%
[14]
  viability, T/C: 62.5%
[15]
  viability, T/C: 83.7%
[16]
  viability, T/C: 72.1%
[17]
  viability, T/C: 81.6%
[18]
  viability, T/C: 79.3%
[19]
  viability, T/C: 58%
[20]
  viability, T/C: 62.1%
[21]
  viability, T/C: 80.1%
[22]
  viability, T/C: 52.2%
[23]
  viability, T/C: 61.1%
[24]
  viability, T/C: 60.7%
[25]
  viability, T/C: 49%
[26]
  viability, T/C: 45.7%
[27]
  viability, T/C: 46.9%
[28]
  viability, T/C: 50.1%
[29]
  viability, T/C: 54.6%
[30]
  viability, T/C: 49.5%
[31]
  viability, T/C: 43.6%
[32]
  viability, T/C: 47.7%
[33]
  viability, T/C: 51%
[34]
  viability, T/C: 43.7%
[35]
  viability, T/C: 49%
[36]
  viability, T/C: 50.3%

## Cc1cccc(N(C)C(=O)C2C(O)CCN2c2nc(C)cc(C(F)(F)F)c2C#N)c1 (stereo unspecified) + Cc1cnc(CNC(=O)c2c(=O)c3ccc(N4CCCN(C)CC4)nc3n3c2sc2ccccc23)cn1
Second compound 0.0316 µM
  IC50: > 10 µM
Second compound 0.1 µM
  IC50: > 10 µM
Second compound 0.316 µM
  IC50: > 10 µM
Second compound 1 µM
  IC50: > 10 µM
Second compound 3.16 µM
  IC50: < 0.0316 µM
Second compound 10 µM
  IC50: < 0.0316 µM
[1]
  viability, T/C: 91.9%
[2]
  viability, T/C: 100%
[3]
  viability, T/C: 89%
[4]
  viability, T/C: 97.2%
[5]
  viability, T/C: 96%
[6]
  viability, T/C: 98.3%
[7]
  viability, T/C: 64.2%
[8]
  viability, T/C: 78%
[9]
  viability, T/C: 78.6%
[10]
  viability, T/C: 67.9%
[11]
  viability, T/C: 65.8%
[12]
  viability, T/C: 67.8%
[13]
  viability, T/C: 66.8%
[14]
  viability, T/C: 64%
[15]
  viability, T/C: 56.3%
[16]
  viability, T/C: 60.9%
[17]
  viability, T/C: 66.6%
[18]
  viability, T/C: 60.5%
[19]
  viability, T/C: 52%
[20]
  viability, T/C: 45.5%
[21]
  viability, T/C: 53.9%
[22]
  viability, T/C: 45.9%
[23]
  viability, T/C: 57.1%
[24]
  viability, T/C: 47.5%
[25]
  viability, T/C: 44%
[26]
  viability, T/C: 47.9%
[27]
  viability, T/C: 39.5%
[28]
  viability, T/C: 43.3%
[29]
  viability, T/C: 47.8%
[30]
  viability, T/C: 40.7%
[31]
  viability, T/C: 42.7%
[32]
  viability, T/C: 39%
[33]
  viability, T/C: 43.4%
[34]
  viability, T/C: 38.1%
[35]
  viability, T/C: 45.7%
[36]
  viability, T/C: 40.6%

## O=C(c1cc(Cc2n[nH]c(=O)c3ccccc23)ccc1F)N1CCN(C(=O)C2CC2)CC1 + Cc1cnc(CNC(=O)c2c(=O)c3ccc(N4CCCN(C)CC4)nc3n3c2sc2ccccc23)cn1
Second compound 0.0316 µM
  IC50: > 10 µM
Second compound 0.1 µM
  IC50: > 10 µM
Second compound 0.316 µM
  IC50: > 10 µM
Second compound 1 µM
  IC50: < 0.0316 µM
Second compound 3.16 µM
  IC50: < 0.0316 µM
Second compound 10 µM
  IC50: < 0.0316 µM
[1]
  viability, T/C: 92.7%
[2]
  viability, T/C: 74.2%
[3]
  viability, T/C: 85.1%
[4]
  viability, T/C: 71%
[5]
  viability, T/C: 68.4%
[6]
  viability, T/C: 75.7%
[7]
  viability, T/C: 63.5%
[8]
  viability, T/C: 75.8%
[9]
  viability, T/C: 63.4%
[10]
  viability, T/C: 64.4%
[11]
  viability, T/C: 75.8%
[12]
  viability, T/C: 59.2%
[13]
  viability, T/C: 57.2%
[14]
  viability, T/C: 52.8%
[15]
  viability, T/C: 60.7%
[16]
  viability, T/C: 59.2%
[17]
  viability, T/C: 54.2%
[18]
  viability, T/C: 45.6%
[19]
  viability, T/C: 44.8%
[20]
  viability, T/C: 43.7%
[21]
  viability, T/C: 52.6%
[22]
  viability, T/C: 42.6%
[23]
  viability, T/C: 48.4%
[24]
  viability, T/C: 42.6%
[25]
  viability, T/C: 47.4%
[26]
  viability, T/C: 43.7%
[27]
  viability, T/C: 38.4%
[28]
  viability, T/C: 38.6%
[29]
  viability, T/C: 41.6%
[30]
  viability, T/C: 35.8%
[31]
  viability, T/C: 43.5%
[32]
  viability, T/C: 39.7%
[33]
  viability, T/C: 42.1%
[34]
  viability, T/C: 38.4%
[35]
  viability, T/C: 35.6%
[36]
  viability, T/C: 35.4%

Source: PubChem BioAssay AID2060509 (Molecular Pharmacology Branch, DTP, NCI, 2025)
